Assay results published in ChEMBL document CHEMBL4725288, “Modulation of TRPV4 and BKCa for treatment of brain diseases” (Bioorg Med Chem, 2020).

Key:
[1] = biological target: Transient receptor potential cation channel subfamily V member 4 (Homo sapiens, UniProt Q9HBA0); assay: Antagonist activity at human TRPV4
[2] = Inhibition of TNP-ADP binding to SERCA (unknown origin) by UV dual-wavelength spectrophotometer; parameters: species or system Homo sapiens

Chain of Transient receptor potential cation channel subfamily V member 4 (Q9HBA0 whole entry): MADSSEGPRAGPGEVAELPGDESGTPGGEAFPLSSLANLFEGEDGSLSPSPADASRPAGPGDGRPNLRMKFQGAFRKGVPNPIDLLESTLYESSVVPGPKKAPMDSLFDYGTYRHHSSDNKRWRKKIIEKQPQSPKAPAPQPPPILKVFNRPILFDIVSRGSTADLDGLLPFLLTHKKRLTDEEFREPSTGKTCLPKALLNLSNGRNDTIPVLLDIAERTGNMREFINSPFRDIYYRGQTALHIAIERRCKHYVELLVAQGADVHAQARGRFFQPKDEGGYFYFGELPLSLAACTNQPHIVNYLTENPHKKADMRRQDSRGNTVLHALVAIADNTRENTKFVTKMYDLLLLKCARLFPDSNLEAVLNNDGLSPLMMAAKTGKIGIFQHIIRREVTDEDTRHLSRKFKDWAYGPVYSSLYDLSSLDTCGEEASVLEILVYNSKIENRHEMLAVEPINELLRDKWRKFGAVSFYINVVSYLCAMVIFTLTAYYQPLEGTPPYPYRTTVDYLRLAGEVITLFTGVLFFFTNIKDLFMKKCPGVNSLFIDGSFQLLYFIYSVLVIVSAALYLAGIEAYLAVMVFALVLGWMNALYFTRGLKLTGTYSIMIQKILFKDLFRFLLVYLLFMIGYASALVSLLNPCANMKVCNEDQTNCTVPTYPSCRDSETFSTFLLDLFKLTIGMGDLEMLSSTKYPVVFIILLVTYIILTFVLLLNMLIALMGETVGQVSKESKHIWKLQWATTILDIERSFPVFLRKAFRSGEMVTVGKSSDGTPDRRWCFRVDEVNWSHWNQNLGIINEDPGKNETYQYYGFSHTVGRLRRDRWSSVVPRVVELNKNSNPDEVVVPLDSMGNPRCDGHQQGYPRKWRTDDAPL

Cc1c(C(=O)Nc2cccc(C(F)(F)F)c2)cc(-c2ccccc2)n1CCCN1CCOCC1 showed an IC50 [1] of 18 nM.
CC(C)(O)[C@H]1O[C@H]2CC[C@@]3(C)[C@@](O)(CC[C@H]4Cc5c([nH]c6ccccc56)[C@@]43C)C2=CC1=O [PAXILLINE] showed an IC50 [2] of 5000 nM.
